This note sets out measurements from patent US5736380A, “Maltose-trehalose converting enzyme, and preparation and uses thereof” (Kabushiki Kaisha Hayashibara Seibutsu Kagaku Kenkyujo, priority 1993, dated 1998).

Structures are written as SMILES.

The target in series [1] is T1, maltose-trehalose converting enzyme derived from Pimelobacter sp. R48 (Pimelobacter sp., UniProt P72235).
T1 construct: The culture obtained in Experiment 1 was centrifuged to obtain an about 0.5 kg wet cells; endogenous in cells; host or cells: Pimelobacter sp; R48 (FERM BP-4315), enzyme purified from the disrupted wild-type cells
T1 sequence (P72235 1-573): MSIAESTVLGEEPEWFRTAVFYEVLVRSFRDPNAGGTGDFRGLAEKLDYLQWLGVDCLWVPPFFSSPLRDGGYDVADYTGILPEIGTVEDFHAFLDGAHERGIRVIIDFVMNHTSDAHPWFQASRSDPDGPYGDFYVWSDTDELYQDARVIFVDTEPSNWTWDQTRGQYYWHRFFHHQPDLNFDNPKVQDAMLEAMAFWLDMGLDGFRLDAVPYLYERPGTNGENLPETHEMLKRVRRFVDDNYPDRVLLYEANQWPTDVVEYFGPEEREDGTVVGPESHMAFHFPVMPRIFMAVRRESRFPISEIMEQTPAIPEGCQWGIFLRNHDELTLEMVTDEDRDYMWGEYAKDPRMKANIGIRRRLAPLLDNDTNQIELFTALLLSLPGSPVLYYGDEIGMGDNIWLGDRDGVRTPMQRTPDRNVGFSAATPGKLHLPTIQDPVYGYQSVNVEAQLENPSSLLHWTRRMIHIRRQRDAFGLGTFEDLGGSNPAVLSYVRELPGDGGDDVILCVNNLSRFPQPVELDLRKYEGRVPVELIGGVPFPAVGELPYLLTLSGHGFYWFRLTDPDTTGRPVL
In words: Action on saccharides (TLC before and after enzymatic reaction). Type of series: biochemical. The following applies: 20° C., pH 7.0, 24 hours. On the procedure: A variety of saccharides were tested for determining whether they could be used as a substrate for the present enzyme. Glucose, maltose, maltotriose,maltotetraose, maltopentaose, maltohexaose, maltoheptaose, soluble starch, amylose having an average polymerization degree of 18, trehalose, neotrehalose, gentiobiose, kojibiose, isomaltose, cellobiose, maltitol, sucrose, maltulose, turanose, paratinose, trehalulose or lactose was prepared into a solution. A solution containing glucose and the equal amount of α-glucose 1-phosphate or β-glucose 1-phosphate was prepared.
(§1) The solutions were respectively mixed with 2 units/g substrate, d.s.b., of a maltose-trehalose converting enzyme obtained by the method in Experiment 2, adjusted their substrate concentrations to 5 w/v %, and subjected to enzymatic reaction at 20° C. and pH 7.0 for 24 hours. The solutions before and after their enzymatic reactions were subjected to thin layer chromatography (TLC) using "[…] 60 (20×20 cm)", an aluminum plate for TLC commercialized by Merck & Co., Inc., Rahway, USA, for determining whether the present enzyme acts on the saccharides. The resultant products were developed once on the plates by using a developing solvent system of 1-butanol, pyridine and water (=6:4:1 by volume). The products on the plates were colored by spraying thereto a 20 v/v % sulfuric acid in methanol, and heating the plates at 110° C. for 10 min.

Series [2] has as its system Partially purified enzymes derived from known microorganisms of the genus Thermus. In words: Action on saccharides, partially purified enzymes. Type of series: biochemical. The following applies: method of Experiment 18. On the procedure:
A variety of saccharides were tested for determining whether they could be used as a substrate for the present enzyme from Thermus aquaticus (ATCC 33923), obtained in accordance with the method in Experiment 4 except for setting the reaction temperature to 50° C. Similarly as the enzymes from Pimelobacter sp.
Among conventional microorganisms, a microorganism which had been confirmed its ability to form the present maltose-trehalose converting enzyme was incubated in an Erlenmeyer flask for 48 hours in accordance with Experiment 15. After analyzed the enzyme activity, the resultant culture was subjected to a cell disrupting apparatus in accordance with Experiment 16. From the resultant mixture a supernatant was prepared and dialyzed to obtain a partially purified enzyme, followed by analyzing the property in accordance with Experiment 17.
Partially purified enzymes derived from known microorganisms of the genus Thermus as shown in Table 12 were studied on their action on a variety of saccharides in accordance with the method in Experiment 18.

In series [3] the target is enzyme from Pseudomonas putida H262 (Pseudomonas putida, UniProt Q88FN0). In words: Action on saccharides (TLC), 35° C. Type of series: biochemical. As to the method:
A variety of saccharides were tested for determining whether they could be used as a substrate for the present enzyme.
as §1
A variety of saccharides were tested for determining whether they could be used as a substrate for the present enzyme from Pseudomonas putida H262 obtained in Experiment 10 in accordance with the method in Experiment 4 except for setting the reaction temperature to 35° C. Similarly as the enzyme from Pseudomonas putida H262, the enzyme from Pimelobacter sp.

The nature of series [4]: Acute toxicity test, oral. Type of series: in vivo. Conditions: mouse, in vivo, mice, not so accurate. On the procedure:
(§2) By using mice, the high-purity trehalose specimen with a purity of 99.8%, d.s.b., prepared in Experiment 8 was orally administered to the mice for its acute toxicity test. […] Though it is not so accurate, the LD50 was determined to be 50 g/kg or higher.

Another series has as its system mice. In words: Acute toxicity test, oral. The series is classed as in vivo. Conditions: highest level of dose administrable. On the procedure: as §2
The nature of series [5]: Utilization test in vivo (blood sugar- and insulin-levels after oral administration). Conditions: 30 g as 20 w/v % aqueous solution, orally, healthy male volunteers. On the procedure: In accordance with the method as reported by H. Atsuji et al. in Journal of Clinical Nutrition, Vol.41, No.2, pp.200-208 (1972), 30 g of the high-purity trehalose specimen with a purity of 99.8%, d.s.b., in Experiment 8 was prepared into a 20 w/v % aqueous solution which was then orally administered to 3 healthy male volunteers, and their bloods were sampled at prescribed time intervals, followed by the measurements of the blood sugar- and insulin-levels. As a control glucose was used. […] Thus, the present trehalose and saccharide composition containing the same are suitably used as an energy-supplementing saccharide.

Series [6] can be described thus: Physicochemical property of trehalose: solubility in water. The following applies: at 25° C., for anhydrous trehalose. As to the method:
A high-purity trehalose specimen prepared by the method in Experiment 8 was studied on its physicochemical property. As a result, the melting point was determined as 97.0° C., the specific rotation was [α]D^20 +199° […].

Chain of enzyme from Pseudomonas putida H262 (Q88FN0 entry or part of it): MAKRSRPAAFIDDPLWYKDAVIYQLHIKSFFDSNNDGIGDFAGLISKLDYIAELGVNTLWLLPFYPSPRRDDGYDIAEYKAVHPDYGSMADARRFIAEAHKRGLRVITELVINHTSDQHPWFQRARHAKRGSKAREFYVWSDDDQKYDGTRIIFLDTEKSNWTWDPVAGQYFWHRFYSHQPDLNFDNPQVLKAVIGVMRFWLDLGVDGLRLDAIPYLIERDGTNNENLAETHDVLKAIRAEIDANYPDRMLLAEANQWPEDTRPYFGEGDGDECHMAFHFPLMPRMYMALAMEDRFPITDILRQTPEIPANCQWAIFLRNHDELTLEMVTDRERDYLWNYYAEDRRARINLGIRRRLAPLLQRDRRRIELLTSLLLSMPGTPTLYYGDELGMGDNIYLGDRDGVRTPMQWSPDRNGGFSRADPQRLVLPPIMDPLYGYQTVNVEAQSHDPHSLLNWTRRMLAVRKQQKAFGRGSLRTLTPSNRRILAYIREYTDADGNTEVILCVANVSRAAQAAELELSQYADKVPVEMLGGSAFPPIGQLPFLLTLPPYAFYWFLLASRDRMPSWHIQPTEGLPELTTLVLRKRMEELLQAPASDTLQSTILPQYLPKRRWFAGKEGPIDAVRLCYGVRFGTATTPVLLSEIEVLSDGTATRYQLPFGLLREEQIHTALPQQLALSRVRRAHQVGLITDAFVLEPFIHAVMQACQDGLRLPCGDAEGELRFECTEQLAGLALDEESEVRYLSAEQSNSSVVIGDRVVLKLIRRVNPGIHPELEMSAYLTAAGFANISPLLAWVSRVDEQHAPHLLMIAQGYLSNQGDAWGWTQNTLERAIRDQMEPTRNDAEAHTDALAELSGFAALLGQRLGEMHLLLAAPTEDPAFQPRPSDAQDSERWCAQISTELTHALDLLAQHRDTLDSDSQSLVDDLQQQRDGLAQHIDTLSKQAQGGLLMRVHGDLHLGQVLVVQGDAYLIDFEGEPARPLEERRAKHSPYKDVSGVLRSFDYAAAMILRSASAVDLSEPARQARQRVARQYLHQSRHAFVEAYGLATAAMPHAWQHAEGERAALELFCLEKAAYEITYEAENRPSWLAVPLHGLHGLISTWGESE

`OC[C@H]1O[C@H](O[C@H]2[C@H](O)[C@@H](O)[C@H](O)O[C@@H]2CO)[C@H](O)[C@@H](O)[C@@H]1O` [Maltose]: in series [1] (2 units/g substrate, substrate 5 w/v %), the Action of enzyme result is on record as “+ +”. Besides, the “action of enzyme on saccharide” value is on record as “only acts on” in series [1], “specifically acted on” in series [2] and “specifically acted on” in series [3].

For `OC[C@H]1O[C@H](O[C@H]2O[C@H](CO)[C@@H](O)[C@H](O)[C@H]2O)[C@H](O)[C@@H](O)[C@@H]1O` [Trehalose], the figures for the “action of enzyme on saccharide” value in series [1], in series [2] and in series [3] were “only acts on”, “specifically acted on” and “specifically acted on”, respectively.

The term LD50 denotes the dose expected to kill half of the subjects tested. Lower therefore signals a more toxic substance. For `OC[C@H]1O[C@H](O[C@H]2O[C@H](CO)[C@@H](O)[C@H](O)[C@H]2O)[C@H](O)[C@@H](O)[C@@H]1O` [high-purity trehalose specimen, trehalose], the LD50 in series [4] is no less than 50000 mg/kg. The mortality result in the series with mice was “no mouse died”. In addition, in series [5], the “blood sugar- and insulin-levels compared with glucose control” value is “behaved similarly as glucose”; the “time of the maximum of blood sugar-level after the administration” value was 0.5 to 1 h; the “time of the maximum of insulin-level after the administration” value is 0.5 to 1 h. This molecule displayed a solubility in water in series [6] of 77.0 g.
